# In ChEMBL document CHEMBL1125630, “Positional effects of sulfation in hirudin and hirudin PA related anticoagulant peptides” (J Med Chem, 1991):
# Assay: In vitro inhibition fibrin clot formation after addition of thrombin.
# Type: functional, Homo sapiens
row,Compound,IC50
1,CC[C@H](C)[C@H](NC(=O)[C@@H]1CCCN1C(=O)C(CCC(=O)O)NC(=O)[C@H](Cc1ccccc1)NC(=O)CCC(=O)O)C(=O)N1CCC[C@H]1C(=O)NC(CCC(=O)O)C(=O)NC(CCC(=O)O)C(=O)N[C@@H](Cc1ccc(O)cc1)C(=O)N[C@@H](CC(C)C)C(=O)NC(CCC(=O)O)C(=O)O (stereo in doubt),1.6 µM
2,CC[C@H](C)[C@H](NC(=O)[C@@H]1CCCN1C(=O)C(CCC(=O)O)NC(=O)[C@H](Cc1ccc(O)cc1)NC(=O)CCC(=O)O)C(=O)N1CCC[C@H]1C(=O)NC(CCC(=O)O)C(=O)NC(CCC(=O)O)C(=O)N[C@@H](C)C(=O)N[C@@H](Cc1ccc(NS(=O)(=O)O)cc1)C(=O)NC(CCC(=O)O)C(=O)O (stereo in doubt),2.5 µM
3,CC[C@H](C)[C@H](NC(=O)[C@@H]1CCCN1C(=O)C(CCC(=O)O)NC(=O)[C@H](Cc1ccc(O)cc1)NC(=O)CCC(=O)O)C(=O)N1CCC[C@H]1C(=O)NC(CCC(=O)O)C(=O)NC(CCC(=O)O)C(=O)N[C@@H](C)C(=O)N[C@@H](Cc1ccc(N)cc1)C(=O)NC(CCC(=O)O)C(=O)O (stereo in doubt),2.9 µM
4,H-GDFEPIPEDAYDE-OH,2.7 µM
5,CC[C@H](C)[C@H](NC(=O)[C@@H]1CCCN1C(=O)C(CCC(=O)O)NC(=O)[C@H](Cc1ccc(O)cc1)NC(=O)CCC(=O)O)C(=O)N1CCC[C@H]1C(=O)NC(CCC(=O)O)C(=O)NC(CCC(=O)O)C(=O)N[C@@H](Cc1ccc([N+](=O)[O-])cc1)C(=O)N[C@@H](CC(C)C)C(=O)NC(CCC(=O)O)C(=O)O (stereo in doubt),2.8 µM

# Compounds with a lower IC50, results first:
row,IC50,Compound
1,1.2 µM,CC[C@H](C)[C@H](NC(=O)[C@@H]1CCCN1C(=O)C(CCC(=O)O)NC(=O)[C@H](Cc1ccccc1)NC(=O)CCC(=O)O)C(=O)N1CCC[C@H]1C(=O)NC(CCC(=O)O)C(=O)NC(CCC(=O)O)C(=O)N[C@@H](C)C(=O)N[C@@H](Cc1ccc(O)cc1)C(=O)NC(CCC(=O)O)C(=O)O (stereo in doubt)
2,0.71 µM,CC[C@H](C)[C@H](NC(=O)[C@@H]1CCCN1C(=O)C(CCC(=O)O)NC(=O)[C@H](Cc1ccc(O)cc1)NC(=O)CCC(=O)O)C(=O)N1CCC[C@H]1C(=O)NC(CCC(=O)O)C(=O)NC(CCC(=O)O)C(=O)N[C@@H](C)C(=O)N[C@@H](Cc1ccc([N+](=O)[O-])cc1)C(=O)NC(CCC(=O)O)C(=O)O (stereo in doubt)
3,0.38 µM,CC[C@H](C)[C@H](NC(=O)[C@@H]1CCCN1C(=O)C(CCC(=O)O)NC(=O)[C@H](Cc1ccc(O)cc1)NC(=O)CCC(=O)O)C(=O)N1CCC[C@H]1C(=O)NC(CCC(=O)O)C(=O)NC(CCC(=O)O)C(=O)N[C@@H](Cc1ccc(N)cc1)C(=O)N[C@@H](CC(C)C)C(=O)NC(CCC(=O)O)C(=O)O (stereo in doubt)
4,0.3 µM,CC[C@H](C)[C@H](NC(=O)[C@@H]1CCCN1C(=O)C(CCC(=O)O)NC(=O)[C@H](Cc1ccccc1)NC(=O)CCC(=O)O)C(=O)N1CCC[C@H]1C(=O)NC(CCC(=O)O)C(=O)NC(CCC(=O)O)C(=O)N[C@@H](C)C(=O)N[C@@H](Cc1ccc(OS(=O)(=O)O)cc1)C(=O)NC(CCC(=O)O)C(=O)O (stereo in doubt)
5,0.12 µM,CC[C@H](C)[C@H](NC(=O)[C@@H]1CCCN1C(=O)C(CCC(=O)O)NC(=O)[C@H](Cc1ccc(O)cc1)NC(=O)CCC(=O)O)C(=O)N1CCC[C@H]1C(=O)NC(CCC(=O)O)C(=O)NC(CCC(=O)O)C(=O)N[C@@H](Cc1ccc(NS(=O)(=O)O)cc1)C(=O)N[C@@H](CC(C)C)C(=O)NC(CCC(=O)O)C(=O)O (stereo in doubt)
6,0.087 µM,CC[C@H](C)[C@H](NC(=O)[C@@H]1CCCN1C(=O)C(CCC(=O)O)NC(=O)[C@H](Cc1ccccc1)NC(=O)CCC(=O)O)C(=O)N1CCC[C@H]1C(=O)NC(CCC(=O)O)C(=O)NC(CCC(=O)O)C(=O)N[C@@H](Cc1ccc(OS(=O)(=O)O)cc1)C(=O)N[C@@H](CC(C)C)C(=O)NC(CCC(=O)O)C(=O)O (stereo in doubt)
